The text below walks through data of PMC6544300, “Mechanism of the efflux transport of demethoxycurcumin-O-glucuronides in HeLa cells stably transfected with UDP-glucuronosyltransferase 1A1” (PLoS ONE, 2019).

Read-outs that look alike come from different tables or passages of the source.

In data set [1] the test system is BCRP transporter. On the set-up: method as in PMID 25587128. Particulars: cited from earlier work.
For data set [2], the system named is MRP1. On the set-up: method as in PMID 26502886. Particulars: MRP1-mediated transport; cited from earlier work.
Data set [3] has as its system MRP2. Also on record: method as in PMID 26502886. Particulars: MRP2-mediated transport; cited from earlier work.
Data set [4] addresses T1, BCRP (Homo sapiens, UniProt Q9UNQ0).
T1 sequence (Q9UNQ0 1-655): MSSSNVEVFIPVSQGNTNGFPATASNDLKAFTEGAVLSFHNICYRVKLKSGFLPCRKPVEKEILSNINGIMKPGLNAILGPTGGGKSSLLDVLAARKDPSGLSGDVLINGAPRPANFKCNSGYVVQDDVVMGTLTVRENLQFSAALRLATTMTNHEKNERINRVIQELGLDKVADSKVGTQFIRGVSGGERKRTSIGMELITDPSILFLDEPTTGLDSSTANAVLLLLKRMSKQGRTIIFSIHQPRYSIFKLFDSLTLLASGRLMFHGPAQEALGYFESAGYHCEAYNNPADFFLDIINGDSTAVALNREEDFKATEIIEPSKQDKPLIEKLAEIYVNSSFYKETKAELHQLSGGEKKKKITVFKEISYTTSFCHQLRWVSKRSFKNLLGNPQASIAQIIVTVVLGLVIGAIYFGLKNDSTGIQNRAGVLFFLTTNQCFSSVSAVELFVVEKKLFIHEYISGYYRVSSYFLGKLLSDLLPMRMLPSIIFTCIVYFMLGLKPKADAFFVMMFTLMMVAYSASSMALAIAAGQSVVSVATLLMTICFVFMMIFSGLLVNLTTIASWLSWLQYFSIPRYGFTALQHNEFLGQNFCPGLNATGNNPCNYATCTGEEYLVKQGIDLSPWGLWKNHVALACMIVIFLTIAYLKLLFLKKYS
Also on record: method as in PMID 28925930. To be noted: following curcumin pretreatment; subjects with ABCG2 421CC genotype; cited from earlier work.

The target of data set [5] is T2, HeLa1A1 cell lysate (Homo sapiens, UniProt P22309).
T2 construct: expressed in transfected cells; host or cells: HeLa cells stably overexpressing UGT1A1 (HeLa1A1), used as cell lysate
T2 sequence (P22309 26-533): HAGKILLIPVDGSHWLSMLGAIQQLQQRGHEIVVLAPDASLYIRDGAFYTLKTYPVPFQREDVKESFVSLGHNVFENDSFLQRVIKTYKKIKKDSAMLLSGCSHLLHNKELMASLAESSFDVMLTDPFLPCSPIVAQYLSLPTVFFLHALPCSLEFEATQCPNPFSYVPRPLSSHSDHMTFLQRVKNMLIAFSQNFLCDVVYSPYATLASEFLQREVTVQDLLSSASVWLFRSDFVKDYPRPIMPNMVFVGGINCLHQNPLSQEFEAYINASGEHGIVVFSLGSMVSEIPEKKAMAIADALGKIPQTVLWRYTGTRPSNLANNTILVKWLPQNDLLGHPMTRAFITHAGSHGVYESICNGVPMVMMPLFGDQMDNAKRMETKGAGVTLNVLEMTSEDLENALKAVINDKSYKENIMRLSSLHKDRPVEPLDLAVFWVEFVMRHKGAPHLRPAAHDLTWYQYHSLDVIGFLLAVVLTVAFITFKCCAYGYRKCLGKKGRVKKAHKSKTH
As to the kind of experiment: DMC-O-glucuronidation kinetics by HeLa1A1 cell lysate. Particulars: for Km / Vmax: Michaelis-Menten model; for CLint: Vmax/Km. The data set is classed as in vitro ADME. The protocol: HeLa1A1 cells were grown in 10-cm dishes for 72 h and then washed and harvested in 50 mM Tris buffer (pH 7.4). The collected cells were sonicated using […] in an ice-cold water bath (4°C). Subsequently, the cell lysates were centrifuged at 13,800 x g for 10 min (4°C). The supernatant was collected for use in the UGT glucuronidation activity assay. The protein concentration was determined using the bicinchoninic acid (BCA) assay (Beyotime, Shanghai, China). Due to the thermal stability of UGT1A1, the glucuronidation activity of UGT1A1 was not affected during sonication process.
(§1) The glucuronidation assay was performed as previously described. Briefly, alamethicin (22 μg/mL), D-saccharic-1,4-lactone (4.4 mM), MgCl2 (0.88 mM), UGT1A1 (1.0 mg/mL) or HeLa1A1 cell lysates (2.3 mg/mL) and DMC (0.5 to 40 μM) were mixed in a 50 mM Tris buffer (pH 7.4). After a preincubation at 37°C for 5 min, UDPGA (3.5 mM) was added to the incubation system, and the mixture was further incubated. After 30 min, the reactions were terminated by the addition of ice-cold acetonitrile (200 μL). The mixed samples were centrifuged at 13,800 x g for 10 min, and the supernatant was analyzed using UHPLC.
(§2) The best model was selected based on a visual inspection of the Eadie-Hofstee plots. Briefly, the rates (V) of glucuronide formation at various substrate concentrations (S) were fitted based on the standard Eq (3). Km represents the Michaelis-Menten constant and Vmax represents the maximum rate of glucuronidation. The intrinsic clearance (CLint) was derived from Vmax/Km. Model fitting and parameter estimation were performed by GraphPad Prism V5 software (SanDiego, CA, USA).

In data set [6] the test system is HeLa1A1 cells. As to the kind of experiment: Toxicity of DMC toward HeLa1A1 cells during excretion experiments. To be noted: DMC 4 μM. In kind it is cell-based, human.
Details of data set [7]: method as in PMID 24480327. To be noted: 2 g curcuminoids incl. 12% DMC orally, two healthy volunteers; below detection limit; cited from earlier work.
On the set-up of data set [8]: method as in earlier work. To be noted: cited from earlier work.
Data set [9] deals with UGT1A1. Also on record: method as in PMID 17628876. To be noted: cited from earlier work.
Data set [10] concerns UGT1A3. Also on record: method as in PMID 17628876. Particulars: cited from earlier work.
Data set [11] has as its system UGT1A8. Also on record: method as in PMID 17628876. Particulars: cited from earlier work.
Data set [12] has as its system UGT1A10. On the set-up: method as in PMID 17628876. To be noted: cited from earlier work.
Data set [13] deals with UGT2B7. On the set-up: method as in PMID 17628876. Particulars: cited from earlier work.
In data set [14] the test system is CYP2C9. Also on record: method as in PMID 21287405. To be noted: human CYP2C9; cited from earlier work.
In data set [15] the test system is CYP3A4. On the set-up: method as in PMID 21287405. Particulars: human CYP3A4; cited from earlier work.
Data set [16] deals with CYP1A2. On the set-up: method as in PMID 21287405. Particulars: human CYP1A2; cited from earlier work.
For data set [17], the system named is CYP3As. On the set-up: method as in PMID 18480186. To be noted: cited from earlier work.
Data set [18] concerns 2C9. Also on record: method as in PMID 18480186. To be noted: cited from earlier work.
Data set [19] concerns SULTs. Also on record: method as in PMID 18480186. To be noted: cited from earlier work.
Data set [20] relates to UGTs. On the set-up: method as in PMID 18480186. Particulars: cited from earlier work.
The subject of data set [21] is human intestinal P-glycoprotein (P-gp). On the set-up: method as in PMID 19879740. Particulars: cited from earlier work.
The target of data set [22] is T3, UGT1A1 (Homo sapiens, UniProt P22309).
T3 sequence (P22309 26-533): T2 sequence (P22309 26-533)
As to the kind of experiment: DMC-O-glucuronidation kinetics by recombinant UGT1A1. Particulars: for CLint: Vmax/Km; for Vmax: UGT1A1, Michaelis-Menten model. On the set-up: purchased Corning Biosciences. In kind it is in vitro ADME. The protocol: as §1, §2

The mark [23] stands for this setting: formation of G1, HeLa1A1 cell lysate.
The mark [24] stands for this setting: formation of G2, HeLa1A1 cell lysate.

A word on the Ki: it is a measure of affinity in units of concentration, obtained from inhibition or displacement. One may read the IC50 as the concentration that inhibits the measured activity by half. `COc1cc(/C=C/C(=O)CC(=O)/C=C/c2ccc(O)c(OC)c2)ccc1O` [curcumin]: in [1], the inhibition constant (Ki) is 0.7 µM. The half-maximal inhibitory concentration (IC50) in data set [2] was 15 µM; in data set [3], 5 µM. In data set [4], the “increase in AUC of orally administered salazosulfapyridine (SASP)” value is recorded as 3.2 fold.
Usually Km stands for the concentration of substrate that gives half-maximal velocity. Regarding Demethoxycurcumin [DMC], the Km in [5] (setting [23]) stood at 5 ± 1.3 µM; in data set [5] (setting [24]), 3.8 ± 0.9 µM; in [22] (formation of G1, UGT1A1, Michaelis-Menten model), 4.5 ± 0.9 µM; in data set [22] (formation of G2, UGT1A1, Michaelis-Menten model), 2.7 ± 0.5 µM. The Vmax in data set [5] (setting [23]) was 264.5±22.3 ( ^***) pmol/min/mg; in data set [5] (setting [24]), 167.4±11.3 (^###) pmol/min/mg; in data set [22] (formation of G1 from DMC (0.5-40 μM)), 1006.0 ± 62.8 pmol/min/mg; in data set [22] (formation of G2 from DMC (0.5-40 μM)) it was 576.1 ± 27.0 pmol/min/mg. For the same compound, the CLint in data set [5] (setting [23]) is 53.0±14.5 ( ^***) μL/min/mg; in data set [5] (setting [24]), 43.9±10.4 (^###) μL/min/mg; in data set [22] (formation of G1, UGT1A1), 225.9 ± 47.3 µL/min/mg; in data set [22] (formation of G2, UGT1A1) it was 212.6 ± 38.3 µL/min/mg. Moreover, the “toxicity toward HeLa1A1 cells” value in [6] is listed as “did not exert significant toxicity”. Further, in data set [7], the DMC concentration was below 2.0 ng/mL. Moreover, the “tissue distribution of free DMC” value in data set [8] (heart) was around 140 ng/g; in data set [8] (intestine), around 150000 ng/g; in data set [8] (kidney), around 80 ng/g; in [8] (liver), “approximately 120 ng/g”; in data set [8] (spleen), around 50 ng/g. Further, the “catalytic activity (glucuronidation of DMC)” value in [9] was “approximately 1600 pmol/min/mg”; in data set [10], “less than 1100 pmol/min/mg”; in [11], “less than 1100 pmol/min/mg”; in data set [12], “less than 1100 pmol/min/mg”; in data set [13], “less than 1100 pmol/min/mg”. Moreover, the IC50 was 1.4 µM in data set [14]; 7 µM in [15]; 34 µM in data set [16]; 31.5 µM in data set [17]; 8.8 µM in [18]; 1.7 µM in data set [19]. Also, the half-inhibitory concentration (IC50) in data set [20] is 13.9 µM. Also, the “inhibition of P-gp activities” value in data set [21] was “capable of inhibiting”.
